Measurements taken from patent publication EP3353259B1, “SILYL MODIFIED POLYMER SEALANT” (Strongbond B.V., priority 2015, dated 2017).

What was measured:
[1] = Cure of MS-kit with 4-dodecylbenzenesulfonic acid (comparative example 1a-b); format: physicochemical
Experimental: (§1) All ingredients except the Tegokat are added to a Hauschild cup and mixed in a Hauschild mixer for 60 seconds. Than the catalyst is added and mixed for another 30 seconds. Additionally UV- and light stabilizers, pigments etc. may be added in the first or second step.

[2] = Experimental: as §1
In fig.6 the degradation time in hours at 150°C is plotted versus the time in days prior to cure at 40°C. On the horizontal axis the time the sealant was stored at 40°C before cure in days is given, showing the storage stability of the anti-oxidant, and on the vertical axis the time in hours to degradation at 150°C, showing the effectiveness of the anti-oxidant after storage of the sealant. This test may be seen as a stress test for both storage stability of the sealant as subsequent oxidation stability. The line represents the present situation using Irganox 1135 commonly applied in the sealant.
In fig. 8 a similar test as in fig. 6 is performed with the above mentioned anti-oxidants.
At present samples have been tested of a commercial STP (or SMP) sealant containing Irganox 1035, Irganox 1330 and a mixture thereof. The total antioxidant content of all samples is 4 g/kg STP polymer. The samples are stored in an oven at 40°C. The degradation times are determined at 150°C as a function of storage time. Furthermore, tensile tests are performed directly and after dumbbells used in said tests are exposed to 100°C for 1000 hours. This is done on freshly prepared sealants and sealants that have been stored at 40°C for 4 weeks.

[3] = Oxidation resistance of MS-kit with dodecylsulfide (comparative example 2a-d); format: physicochemical; conditions: up to 5% added to a standard mix with and without Irganox 1135, compared to standard mixture without dodecylsulfide
Experimental: Up to 5% dodecylsulfide was added to a standard mix with and without Irganox 1135. No change in oxidation resistance was found compared to the standard mixture with or without Irganox 1135 not containing dodecylsulfide.

## CCCCCCCCCCCCc1ccc(S(=O)(=O)O)cc1 [4-dodecylbenzenesulfonic acid]
[1]; added instead of a tin-catalyst
  cure: no cure was observed
[1]; after addition of a tin catalyst
  cure: behaved as without 4-dodecylbenzenesulfonic acid

## CC(C)(C)c1cc(CCC(=O)OCC(COC(=O)CCc2cc(C(C)(C)C)c(O)c(C(C)(C)C)c2)(COC(=O)CCc2cc(C(C)(C)C)c(O)c(C(C)(C)C)c2)COC(=O)CCc2cc(C(C)(C)C)c(O)c(C(C)(C)C)c2)cc(C(C)(C)C)c1O [Irganox 1010]
[2]
  Degradation time after 7 days @ 40°C: 3 h
  Initial degradation Time: 24 h
  Relative decrease degradation time after 7days @ 40°C: 13%

## CC(C)(C)c1cc(CCC(=O)OCCSCCOC(=O)CCc2cc(C(C)(C)C)c(O)c(C(C)(C)C)c2)cc(C(C)(C)C)c1O [Irganox 1035]
[2]
  Degradation time after 7 days @ 40°C: 2 h
  Initial degradation Time: 16 h
  Relative decrease degradation time after 7days @ 40°C: 13%

## CCCCCCCCSc1nc(Nc2cc(C(C)(C)C)c(O)c(C(C)(C)C)c2)nc(SCCCCCCCC)n1 [Irganox 565]
[2]
  Degradation time after 7 days @ 40°C: 9 h
  Initial degradation Time: 16 h
  Relative decrease degradation time after 7days @ 40°C: 56%

## Cc1cc(CCC(=O)OCCOCCOCCOC(=O)CCc2cc(C)c(O)c(C(C)(C)C)c2)cc(C(C)(C)C)c1O [Irganox 245]
[2]
  Degradation time after 7 days @ 40°C: 2 h
  Initial degradation Time: 9 h
  Relative decrease degradation time after 7days @ 40°C: 22%

## CCCCCCCCCCCCSCCCCCCCCCCCC [dodecylsulfide]
[3]
  oxidation resistance: No change

## Cc1c(Cc2cc(C(C)(C)C)c(O)c(C(C)(C)C)c2)c(C)c(Cc2cc(C(C)(C)C)c(O)c(C(C)(C)C)c2)c(C)c1Cc1cc(C(C)(C)C)c(O)c(C(C)(C)C)c1 [Irganox 1330]
[2]
  Degradation time after 7 days @ 40°C: 21 h
  Initial degradation Time: 34 h
  Relative decrease degradation time after 7days @ 40°C: 62%
